Measured values from patent publication US20250136555A1 (HARBIN MEDISAN PHARMACEUTICAL CO., LTD., priority 2022, published 2025).
Read-outs that look alike come from different tables or passages of the source.

Columns and labels:
PPARγ = biological target: T1, PPARγ (Homo sapiens, UniProt P37231); experiment: GAL4 hybrid reporter gene method, PPARγ agonistic activity; format: cell-based; settings: Cos-7 cells, Gal4-PPARγ (LBD); Rosiglitazone 1 μM = 100%; 16 h
T1 construct: expressed in transfected cells; host or cells: COS-7
T1 sequence (P37231 238-503 limits assumed): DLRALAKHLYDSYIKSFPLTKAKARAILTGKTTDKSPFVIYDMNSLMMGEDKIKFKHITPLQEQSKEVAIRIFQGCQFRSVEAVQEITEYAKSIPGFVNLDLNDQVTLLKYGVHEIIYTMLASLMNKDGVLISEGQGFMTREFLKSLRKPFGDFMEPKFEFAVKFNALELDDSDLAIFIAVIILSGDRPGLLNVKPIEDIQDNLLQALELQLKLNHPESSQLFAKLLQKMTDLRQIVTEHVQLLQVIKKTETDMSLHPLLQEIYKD
Procedure: Cos-7 cells (African green monkey kidney fibroblasts, commonly used tool cells) were cultured in a 10-cm cell culture dish with a DMEM complete medium containing 10% fetal bovine serum. When growing at a density of about 70%, the cells were ready for transfection. […] The working solution described above was then combined with 8 mL of the DMEM complete medium, and the mixture was added to the cell culture dish for cell transfection. After 4 h of transfection, the cells were digested, resuspended, and seeded into a 96-well plate at 25,000 cells/well. […] 10 μL of a reporter gene detection solution (purchased from Shanghai Beyotime Biological Tech. Co., Ltd.) was added. After the resulting solution was mixed and reacted, biological fluorescence was detected by using a multifunctional microplate reader, and corresponding half maximal effective concentration (EC50) values were calculated according to the detection values. […] Transfection working solutions for different nuclear receptors were prepared and added into COS-7 cells. The preparation method for the transfection working solution was as follows: the constructed pBIND-Gal4-PPARα (LBD) (or pBIND-Gal4-PPARδ (LBD) plasmid or pBIND-Gal4-PPARγ (LBD) plasmid or pBIND-Gal4-RARα (LBD) plasmid or pBIND-Gal4-RARγ (LBD) plasmid or pBIND-Gal4-RARβ (LBD) plasmid or pBIND-Gal4-RORα (LBD) plasmid or pBIND-Gal4-RORγ (LBD) plasmid or pBIND-Gal4-RORβ (LBD) plasmid or pBIND-Gal4-FXR (LBD) plasmid or pBIND-Gal4-RXRα.

[1] = Metabolic stability in human liver microsomes; format: in vitro ADME
Procedure: A solution of the compound in acetonitrile at a concentration of 500 μM was prepared and diluted in 0.1 M potassium phosphate solution to obtain a 1.5 μM drug working solution. The drug working solution was co-incubated with a human liver microsome working solution at a final concentration of 0.75 mg/mL and a NADPH solution (at a final concentration of 550 μM), and the incubation was terminated by adding an acetonitrile solution at 0 min, 15 min, 30 min, 45 min, and 60 min, respectively. The remaining amount of the compound remained in the system at each time point was detected by using LC/MS, the absolute value k of the slope was measured by plotting the natural logarithm of the percentage of the remaining amount of the compound over time, and the calculation was performed according to the formula: T1/2 (half-life)=ln2/k=0.693/k.

[2] = Pharmacokinetic evaluation in rats; format: in vivo, SD rats; settings: for AUC(0-inf): read-out: Area under the curve AUC(0-∞); for Tmax: read-out: Peak time Tmax
Procedure: Animals: 6 SPF-grade male SD rats were purchased from Beijing Vital River Laboratory Animal Technology Co., Ltd.
Grouping: rats were divided into 2 groups, with 3 rats in each group; one group was an oral administration group, and the other group was an intravenous injection group. The dose in the oral administration group was 10 mpk, and the dose in the intravenous injection group was 2 mpk.
Experimental procedures: after rats in the intravenous injection group were administered by tail vein injection, about 0.25 mL of blood was collected from the orbit at 0.083 h, 0.25 h, 0.5 h, 1 h, 2 h, 4 h, 6 h, 8 h, and 24 h, respectively, and then heparin sodium was rapidly added for anticoagulation after blood collection. The blood was placed on ice after collection. Rats in the oral administration group were fasted for 12 h before administration and fed 4 h after administration. After the rats were administered orally, about 0.25 mL of blood was collected from the orbit at 0.083 h, 0.25 h, 0.5 h, 1 h, 2 h, 4 h, 6 h, 8 h, and 24 h, respectively, and then heparin sodium was rapidly added for anticoagulation after blood collection. The blood was placed on ice after collection. All samples were centrifuged at 6000 r/min for 3 min in a low-temperature centrifuge, and plasma was obtained after separation. The content of the compound in the plasma was detected via LC-MS/MS-18, and relevant pharmacokinetic parameters were calculated according to the plasma concentration data of different time points.

NASH model mice = experiment: NASH induced by HF-CDAA diet in mice; format: in vivo, C57 mice
[3] = tested on: hepatic fibrosis model mice; experiment: Tetrachloromethane-induced hepatic fibrosis in mice; format: in vivo, C57 mice
Procedure: Animals: 30 male C57 mice, SPF grade, 8 weeks old, weighing about 20 g, purchased from Beijing Vital River. All animals maintained a 12-hour alternating circadian rhythm and were given ad libitum access to food and water. […] The mice were all fed food and water normally, and the modeling lasted for 3 weeks. The mice in the model group and each of the administration groups were injected twice a week with a 25% CCl4 oil solution at a dose of 2 mL/kg, and the mice in the control group were injected with an oil solvent with the same volume. The administration was started at the same time of molding. […] After 3 weeks of administration, the mice were all fed food and water normally. Each group of mice was weighed every day, and their body weight, hair, feces, and activities were carefully observed and recorded. Twenty-four hours after the sixth injection of CCl4, the mice were dissected for sampling. Blood was collected from the orbit, the mice were euthanized, and the liver was collected. The right lobular tissue of the liver was fixed with 4% paraformaldehyde and used for sectioning followed by HE and sirius red staining. Part of liver tissues were divided into 3 parts and snap-frozen in liquid nitrogen for subsequent assays of other indexes. The pre-treated tissue was sent to Wuhan Servicebio Technology Co., Ltd. for preparing HE-stained sections and sirius red-stained sections. The liver tissue stored at −80° C. was taken and placed in liquid nitrogen, and about 200 mg of liver tissue was rapidly cut off. Hydroxyproline in the liver tissue was assayed according to the method in the product's instruction (Beijing Solarbio Science & Technology Co., Ltd., BC0255).

[4] = human liver microsomes 0.75 mg/mL, NADPH
[5] = male, SD, rat, plasma, 2 mg/kg, intravenous injection, 2 mpk
[6] = male, SD, rat, plasma, 10 mg/kg, oral administration, 10 mpk
[7] = NASH model mice, 0.1 mg/kg intragastric daily, 2 weeks
[8] = compound 1 0.1 mg/kg vs GFT505 10 mg/kg

EC50 (PPARγ): 1.66 µM
metabolic stability in human liver microsomes ([1]; human liver microsomes): very good metabolic stability
CLint scaled [1, 4]: 6.2 mL/min/kg
half-life [1, 4]: > 2 h
pharmacokinetic properties ([2]; in vivo): good pharmacokinetic properties
Half-life T1/2 ([2]; intravenous injection, 2 mpk): 4.82 ± 1.05 h
Peak concentration Cmax ([2]; intravenous injection, 2 mpk): 4306.67 ± 1546.13 ng/mL
AUC(0-inf) [2, 5]: 4250 ± 1240 ng·h/mL
Tmax [2, 5]: 0.08 h
AUC(0-inf) [2, 6]: 22300 ± 3550 ng·h/mL
bioavailability ([2]; male, SD, rat, plasma, 10 mg/kg, oral administration, 10 mpk, read-out: Bioavailability F (%)): 104.7 ± 0.17%
Tmax [2, 6]: 2.25 ± 3.25 h
Half-life T1/2 ([2]; oral administration, 10 mpk): 6.72 ± 1.39 h
Peak concentration Cmax ([2]; oral administration, 10 mpk): 2816.67 ± 1020.41 ng/mL
Structure (SMILES): Cc1cc(CN2C(=O)CN(c3ccc(C(F)(F)F)cc3)C2=O)cc(C)c1OC(C)(C)C(=O)O [Compound 1, 2-(4-((2,5-Dioxo-3-(4-(trifluoromethyl)phenyl)imidazolidin-1-yl)methyl)-2,6-dimethylphenoxy)-2-methylpropionic Acid]
pathological state of NASH mice (conclusion) (NASH model mice; 0.1 mg/kg): significantly improve the pathological state
collagen deposition in liver, sirius red staining (FIG. 8) (NASH model mice; NASH model mice, 0.1 mg/kg): reduce collagen deposition
inflammatory infiltration in hepatic lobules, HE staining (FIG. 7) (NASH model mice; NASH model mice, 0.1 mg/kg): reduce inflammatory infiltration
lipid droplets in liver, oil red staining (FIG. 9) (NASH model mice; NASH model mice, 0.1 mg/kg): reduce the number and area of lipid droplets
liver mRNA expression level of Acta2 (FIG. 12) (NASH model mice; NASH model mice, 0.1 mg/kg): inhibit the increase
liver mRNA expression level of Ccl2 (FIG. 11) (NASH model mice; NASH model mice, 0.1 mg/kg): inhibit the increase
liver mRNA expression level of Ccl5 (FIG. 11) (NASH model mice; NASH model mice, 0.1 mg/kg): inhibit the increase
liver mRNA expression level of Cd11b (FIG. 11) (NASH model mice; NASH model mice, 0.1 mg/kg): inhibit the increase
liver mRNA expression level of Col1a1 (FIG. 12) (NASH model mice; NASH model mice, 0.1 mg/kg): inhibit the increase
liver mRNA expression level of Col3a1 (FIG. 12) (NASH model mice; NASH model mice, 0.1 mg/kg): inhibit the increase
liver mRNA expression level of Tgfb1 (FIG. 12) (NASH model mice; NASH model mice, 0.1 mg/kg): inhibit the increase
liver mRNA expression level of Tnf (FIG. 11) (NASH model mice; NASH model mice, 0.1 mg/kg): inhibit the increase
triglyceride content in the liver (FIG. 10) (NASH model mice; NASH model mice, 0.1 mg/kg): reduce triglyceride accumulation
serum ALT level (FIG. 6) (NASH model mice; [7]): down-regulated
serum AST level (FIG. 6) (NASH model mice; [7]): down-regulated
effect on reducing hepatic enzymes versus GFT505 (NASH model mice; [8]): slightly better effect on reducing the levels of hepatic enzymes than that of GFT505 at 10 mg/kg
effect on reducing hepatic triglycerides versus GFT505 (NASH model mice; [8]): superior to that of GFT505 at 10 mg/kg
effect on reducing lipid accumulation versus GFT505 (NASH model mice; [8]): superior to that of GFT505 at 10 mg/kg
therapeutic effect in NASH mice versus GFT505 (NASH model mice; [8]): equivalent therapeutic effect to that of GFT505 at a dose of 10 mg/kg
collagen deposition in liver, sirius red staining (FIG. 15) ([3]; CCl4 model): significantly reduce collagen deposition
effect on the hepatic fibrosis mouse model (conclusion) ([3]; CCl4 model): protective effect
inflammatory infiltration in liver, HE staining (FIG. 14) ([3]; CCl4 model): reduce inflammatory infiltration
hydroxyproline content in the liver (FIG. 13) ([3]; CCl4 model, 0.03 and 0.1 mg/kg intragastric daily, 3 weeks): dose-dependently reduce the hydroxyproline content
improving effect on collagen deposition versus GFT505 [3, 8]: superior to that of GFT505 at 10 mg/kg
effect on hydroxyproline content versus GFT505 ([3]; compound 1 0.1 mg/kg vs GFT505 at 30 mg/kg (so in the source)): superior to that of GFT505 at 30 mg/kg
